Measured values published in ChEMBL document CHEMBL1135234, “2-Arylindoles as gonadotropin releasing hormone (GnRH) antagonists: optimization of the tryptamine side chain” (Bioorg Med Chem Lett, 2002).
Where “and” joins values, the source holds several entries; their conditions need not be identical. Equal values may be shown once.

Experiments:
[1] = target: T1, Gonadotropin-releasing hormone receptor (Homo sapiens, UniProt P30968); experiment: Inhibition of [125I]buserelin binding to human pituitary gonadotropin-releasing hormone receptor
T1 sequence (P30968 whole entry): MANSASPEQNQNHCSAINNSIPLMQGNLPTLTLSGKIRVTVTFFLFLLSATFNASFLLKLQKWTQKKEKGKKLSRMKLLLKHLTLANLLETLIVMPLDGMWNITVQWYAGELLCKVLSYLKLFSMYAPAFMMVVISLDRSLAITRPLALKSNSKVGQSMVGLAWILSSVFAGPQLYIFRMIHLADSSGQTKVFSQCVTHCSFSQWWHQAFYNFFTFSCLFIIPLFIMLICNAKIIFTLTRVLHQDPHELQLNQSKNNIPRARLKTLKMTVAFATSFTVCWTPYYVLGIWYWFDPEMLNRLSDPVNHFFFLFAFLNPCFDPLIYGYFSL

Cytochrome P450 3A4 [2] = target: T2, Cytochrome P450 3A4 (Homo sapiens, UniProt P08684); experiment: Inhibition of cytochrome P450 3A4 enzyme
[3] = target: T1, Gonadotropin-releasing hormone receptor; experiment: Inhibition of gonadotropin-releasing hormone receptor-stimulated [3H]inositol phosphate hydrolysis; format: functional
[4] = (§1) Oral bioavailability in dog; format: ADME, organism-based, Canis lupus familiaris; settings: in vivo
Cytochrome P450 3A4 [5] = target: T2, Cytochrome P450 3A4; experiment: Inhibition of cytochrome P450 3A4 enzyme; Range 1-2 uM; format: ADME
[6] = Half life in dog was determined; format: ADME, organism-based, Canis lupus familiaris; settings: in vivo
[7] = Plasma clearance in dog was determined; format: ADME, organism-based, Canis lupus familiaris; settings: read-out: Clp
Canis familiaris [8] = experiment: as §1; format: ADME, organism-based, Canis lupus familiaris; settings: in vivo
[9] = target: T1, Gonadotropin-releasing hormone receptor; experiment: Compound was evaluated for the inhibition of Gonadotropin-releasing hormone receptor-stimulated [3H]inositol phosphate hydrolysis using functional assay
Canis familiaris [10] = experiment: Compound was tested for the oral bioavailability in dog; No availability; format: ADME, organism-based, Canis lupus familiaris; settings: in vivo

T2 sequence (P08684 whole entry): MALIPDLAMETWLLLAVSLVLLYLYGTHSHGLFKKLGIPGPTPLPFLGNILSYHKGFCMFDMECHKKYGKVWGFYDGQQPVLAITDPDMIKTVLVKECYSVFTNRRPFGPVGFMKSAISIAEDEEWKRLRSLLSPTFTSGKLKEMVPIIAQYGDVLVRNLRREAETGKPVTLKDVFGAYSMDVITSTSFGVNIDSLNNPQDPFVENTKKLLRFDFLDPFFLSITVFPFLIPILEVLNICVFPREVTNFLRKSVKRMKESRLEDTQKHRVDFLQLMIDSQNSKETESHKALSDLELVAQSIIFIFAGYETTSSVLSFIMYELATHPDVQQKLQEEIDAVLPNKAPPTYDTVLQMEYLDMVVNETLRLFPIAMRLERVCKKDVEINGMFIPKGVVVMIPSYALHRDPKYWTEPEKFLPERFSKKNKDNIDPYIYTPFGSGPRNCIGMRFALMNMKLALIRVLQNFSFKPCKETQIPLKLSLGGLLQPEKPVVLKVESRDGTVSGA

SMILES | IC50 [1] | IC50 [3] | other results
Cc1cc(C)cc(-c2[nH]c3ccc(C(C)(C)C(=O)N4C5CCC4CC5)cc3c2[C@H](C)CNCCc2ccc3[nH]c(C)nc3c2)c1 | 0.4 nM | 13 nM | IC50 (Cytochrome P450 3A4 [2]): 5000 nM
Cc1cc(C)cc(-c2[nH]c3ccc(C(C)(C)C(=O)N4CC5CCC4CC5)cc3c2[C@H](C)CNCCc2cnc3nn[nH]c3c2)c1 | 0.6 nM | 2.8 nM | 
Cc1cc(C)cc(-c2[nH]c3ccc(C(C)(C)C(=O)N4CC5CCC4CC5)cc3c2[C@H](C)CNCCc2ccc3nc[nH]c3c2)c1 | 0.3 nM | 4.5 nM | bioavailability [4]: 63%; IC50 (Cytochrome P450 3A4 [2]): 100 nM
Cc1cc(C)cc(-c2[nH]c3ccc(C(C)(C)C(=O)N4CC5CCC4CC5)cc3c2[C@H](C)CNCCc2ccc3nsnc3c2)c1 | 0.5 nM | 11.4 nM | IC50 (Cytochrome P450 3A4 [5]): 1000 nM
Cc1cc(C)cc(-c2[nH]c3ccc(C(C)(C)C(=O)N4C5CCC4CC5)cc3c2[C@H](C)CNCCCCc2ccnc3nc(C)ccc23)c1 | 0.6 nM | 8.4 nM | 
Cc1cc(C)cc(-c2[nH]c3ccc(C(C)(C)C(=O)N4CC5CCC4CC5)cc3c2[C@H](C)CNCCc2ccc3[nH]c(C(F)(F)F)nc3c2)c1 | 0.9 nM | 101 nM | IC50 (Cytochrome P450 3A4 [2]): > 10000 nM
Cc1cc(C)cc(-c2[nH]c3ccc(C(C)(C)C(=O)N4CC5CCC4CC5)cc3c2[C@H](C)CNCCc2c[nH]c3ncnc-3c2)c1 | 0.3 nM | 4.5 nM | bioavailability [4]: 16%; IC50 (Cytochrome P450 3A4 [2]): 4000 nM
Cc1cc(C)cc(-c2[nH]c3ccc(C(C)(C)C(=O)N4CC5CCC4CC5)cc3c2[C@H](C)CNCCc2ccc3nn[nH]c3c2)c1 | 0.3 nM | 2.5 nM | bioavailability [4]: 20%; half-life [6]: 7.2 h; clearance [7]: 5 mL/min/kg
Cc1cc(C)cc(-c2[nH]c3ccc(C(C)(C)C(=O)N4C5CCC4CC5)cc3c2[C@H](C)CNCCCc2cnc3nccnc3c2)c1 | 0.8 nM | 10.9 nM | 
Cc1cc(C)cc(-c2[nH]c3ccc(C(C)(C)C(=O)N4C5CCC4CC5)cc3c2[C@H](C)CNCCc2cccc3cnccc23)c1 | 0.6 nM | 34.7 nM | bioavailability [4]: 10%; half-life [6]: 1.9 h; clearance [7]: 5.8 mL/min/kg; IC50 (Cytochrome P450 3A4 [5]): 1000 nM
Cc1cc(C)cc(-c2[nH]c3ccc(C(C)(C)C(=O)N4C5CCC4CC5)cc3c2[C@H](C)CNCCCCc2ccc3ncccc3c2)c1 | 1.1 nM | 11.5 nM | 
Cc1cc(C)cc(-c2[nH]c3ccc(C(C)(C)C(=O)N4C5CCC4CC5)cc3c2[C@H](C)CNCCc2c[nH]c3ncnc-3c2)c1 | 0.4 nM | 2.5 nM | 
Cc1cc(C)cc(-c2[nH]c3ccc(C(C)(C)C(=O)N4CC5CCC4CC5)cc3c2[C@H](C)CNCCc2ccc3[nH]c(=O)[nH]c3c2F)c1 | 0.7 nM | 27.9 nM | 
Cc1cc(C)cc(-c2[nH]c3ccc(C(C)(C)C(=O)N4C5CCC4CC5)cc3c2[C@H](C)CNCCCc2cccc3cnccc23)c1 | 0.9 nM | 5 nM | 
Cc1cc(C)cc(-c2[nH]c3ccc(C(C)(C)C(=O)N4C5CCC4CC5)cc3c2[C@H](C)CNCCCc2cncc3ccccc23)c1 | 2.1 nM | 7.5 nM | 
Cc1cc(C)cc(-c2[nH]c3ccc(C(C)(C)C(=O)N4C5CCC4CC5)cc3c2[C@H](C)CNCCCc2ccc3cnccc3c2)c1 | 0.7 nM | 4.6 nM | 
Cc1cc(C)cc(-c2[nH]c3ccc(C(C)(C)C(=O)N4C5CCC4CC5)cc3c2[C@H](C)CNCCCCc2ccncc2)c1 |  |  | F (Canis familiaris [8]): 23% and 11%; half-life [6]: 9.5 h; clearance [7]: 26.5 mL/min/kg
Cc1cc(C)cc(-c2[nH]c3ccc(C(C)(C)C(=O)N4C5CCC4CC5)cc3c2[C@H](C)CNCCc2ccc3ncoc3c2)c1 | 0.4 nM | 2 nM | IC50 (Cytochrome P450 3A4 [5]): 1000 nM
Cc1cc(C)cc(-c2[nH]c3ccc(C(C)(C)C(=O)N4C5CCC4CC5)cc3c2[C@H](C)CNCCCCc2cnc3nc[nH]c3c2)c1 | 0.4 nM | 4.6 nM | 
Cc1cc(C)cc(-c2[nH]c3ccc(C(C)(C)C(=O)N4C5CCC4CC5)cc3c2[C@H](C)CNCCCCc2ccc3cnccc3c2)c1 | 3.6 nM | 5.8 nM | 

SMILES | IC50 [1] | IC50 [3] | other results
Cc1cc(C)cc(-c2[nH]c3ccc(C(C)(C)C(=O)N4CC5CCC4CC5)cc3c2[C@H](C)CNCCc2ccc3ncoc3c2)c1 | 0.6 nM | 3.9 nM | 
Cc1cc(C)cc(-c2[nH]c3ccc(C(C)(C)C(=O)N4C5CCC4CC5)cc3c2[C@H](C)CNCCCCc2cccc3cnccc23)c1 | 1.5 nM | 6.8 nM | bioavailability [4]: 4%; half-life [6]: 1 h; clearance [7]: 49.2 mL/min/kg
Cc1cc(C)cc(-c2[nH]c3ccc(C(C)(C)C(=O)N4C5CCC4CC5)cc3c2[C@H](C)CNCCc2ccc3ocnc3c2)c1 | 0.3 nM | 9 nM | 
Cc1cc(C)cc(-c2[nH]c3ccc(C(C)(C)C(=O)N4C5CCC4CC5)cc3c2[C@H](C)CNCCc2ccc3[nH]nnc3c2)c1 | 0.6 nM | 2 nM | bioavailability [4]: 37%; half-life [6]: 2.7 h; clearance [7]: 37 mL/min/kg
COC(=O)c1nc2ccc(CCNC[C@@H](C)c3c(-c4cc(C)cc(C)c4)[nH]c4ccc(C(C)(C)C(=O)N5CC6CCC5CC6)cc34)cc2[nH]1 | 0.3 nM | 7.6 nM | 
Cc1cc(C)cc(-c2[nH]c3ccc(C(C)(C)C(=O)N4CC5CCC4CC5)cc3c2[C@H](C)CNCCc2ccc3[nH]c(CO)nc3c2)c1 | 0.7 nM | 5 nM | 
Cc1cc(C)cc(-c2[nH]c3ccc(C(C)(C)C(=O)N4C5CCC4CC5)cc3c2[C@H](C)CNCc2cccc3ncccc23)c1 (stereo in doubt; 27a) | 27.5 nM | 420 nM | 
Cc1cc(C)cc(-c2[nH]c3ccc(C(C)(C)C(=O)N4CC5CCC4CC5)cc3c2[C@H](C)CNCCc2ccc3[nH]c(=O)[nH]c3c2)c1 | 0.6 nM |  | IC50 [9]: 2 nM; bioavailability [4]: 5%
Cc1cc(C)cc(-c2[nH]c3ccc(C(C)(C)C(=O)N4C5CCC4CC5)cc3c2[C@H](C)CNCCCCc2cnc3nccnc3c2)c1 | 0.4 nM | 7.9 nM | 
Cc1cc(C)cc(-c2[nH]c3ccc(C(C)(C)C(=O)N4C5CCC4CC5)cc3c2[C@H](C)CNCCCCc2cncc3ccccc23)c1 | 2.1 nM | 10.2 nM | 
Cc1cc(C)cc(-c2[nH]c3ccc(C(C)(C)C(=O)N4C5CCC4CC5)cc3c2[C@H](C)CNCCCc2cccc3ncccc23)c1 | 2.4 nM | 131 nM | 
Cc1cc(C)cc(-c2[nH]c3ccc(C(C)(C)C(=O)N4C5CCC4CC5)cc3c2[C@H](C)CNCCc2ccc3nc[nH]c3c2)c1 | 0.4 nM | 2.6 nM | 
Cc1cc(C)cc(-c2[nH]c3ccc(C(C)(C)C(=O)N4C5CCC4CC5)cc3c2[C@H](C)CNCc2cccc3ncccc23)c1 (stereo in doubt; 27b) | 15.3 nM | 315 nM | 
Cc1cc(C)cc(-c2[nH]c3ccc(C(C)(C)C(=O)N4CC5CCC4CC5)cc3c2[C@H](C)CNCCc2ccc3[nH]ncc3c2)c1 | 1.1 nM | 1.5 nM | 
Cc1cc(C)cc(-c2[nH]c3ccc(C(C)(C)C(=O)N4C5CCC4CC5)cc3c2[C@H](C)CNCCCc2ccc3ncccc3c2)c1 | 3 nM | 17.8 nM | 
Cc1cc(C)cc(-c2[nH]c3ccc(C(C)(C)C(=O)N4CC5CCC4CC5)cc3c2[C@H](C)CNCCc2ccc3nc(C(=O)O)[nH]c3c2)c1 | 0.4 nM | 6.5 nM | F (Canis familiaris [10]): Not Active; clearance [7]: 24.6 mL/min/kg
Cc1cc(C)cc(-c2[nH]c3ccc(C(C)(C)C(=O)N4CC5CCC4CC5)cc3c2[C@H](C)CNCc2ccc3nc[nH]c3c2)c1 | 16.5 nM | 43.9 nM | 
Cc1cc(C)cc(-c2[nH]c3ccc(C(C)(C)C(=O)N4C5CCC4CC5)cc3c2[C@H](C)CNCCCc2ccnc3nc(C)ccc23)c1 | 1.1 nM | 16.2 nM | 
Cc1cc(C)cc(-c2[nH]c3ccc(C(C)(C)C(=O)N4C5CCC4CC5)cc3c2[C@H](C)CNCCCCc2cccc3ncccc23)c1 | 1.9 nM | 46.4 nM | 
